According to ChEMBL document CHEMBL5257106, “Design, synthesis, and biological evaluation of novel HDAC inhibitors with a 3-(benzazol-2-yl)quinoxaline framework” (Bioorg Med Chem Lett, 2023):

Columns and labels:
MCF7 = test: Antiproliferative activity against human MCF7 cells assessed as inhibition of cell growth by MTT assay; type: functional, cell-based
PANC-1 = test: Antiproliferative activity against human PANC-1 cells assessed as inhibition of cell growth by MTT assay; type: functional, cell-based
HCT-116 [1] = test: Antiproliferative activity against human HCT-116 cells assessed as inhibition of cell growth by MTT assay; type: functional, cell-based
A2780 = test: Antiproliferative activity against human A2780 cells assessed as inhibition of cell growth by MTT assay; type: functional, cell-based
[2] = Cytotoxicity against HUVEC cells assessed as inhibition of cell growth by MTT assay; conditions: human
HCT-116 [3] = test: Induction of apoptosis in human HCT-116 cells assessed as viable cells at 1 uM incubated for 24 hrs by Annexin V-FITC/PI staining based flow cytometry analysis (reference value: 93.2%); type: functional
HCT-116 [4] = test: Induction of apoptosis in human HCT-116 cells assessed as early apoptotic cells at 1 uM incubated for 24 hrs by Annexin V-FITC/PI staining based flow cytometry analysis (reference value: 6.50%); type: functional
HCT-116 [5] = test: Induction of apoptosis in human HCT-116 cells assessed as late apoptotic cells at 1 uM incubated for 24 hrs by Annexin V-FITC/PI staining based flow cytometry analysis (reference value: 0.323%); type: functional
HCT-116 [6] = test: Induction of apoptosis in human HCT-116 cells assessed as necrotic cells at 1 uM incubated for 24 hrs by Annexin V-FITC/PI staining based flow cytometry analysis (reference value: 0.00%); type: functional
HCT-116 [7] = test: Induction of apoptosis in human HCT-116 cells assessed as total apoptotic cells at 1 uM incubated for 24 hrs by Annexin V-FITC/PI staining based flow cytometry analysis (reference value: 6.823%); type: functional
HCT-116 [8] = test: Induction of cell cycle arrest in human HCT-116 assessed as decrease in G0/G1 phase cells at 1 uM incubated for 48 hrs by flow cytometric analysis (reference value: 63.51%); type: functional; set-up: scale not given: the % may be the effect or the level left
HCT-116 [9] = test: Induction of cell cycle arrest in human HCT-116 assessed as increase in G2/M phase cells at 1 uM incubated for 48 hrs by flow cytometric analysis (reference value: 23.70%); type: functional
HCT-116 [10] = test: Induction of cell cycle arrest in human HCT-116 assessed as S phase cells at 1 uM incubated for 48 hrs by flow cytometric analysis (reference value: 12.79%); type: functional
K562 = test: Antiproliferative activity against human K562 cells assessed as inhibition of cell growth by MTT assay; type: functional, cell-based
RS4-11 = test: Antiproliferative activity against human RS4-11 cells assessed as inhibition of cell growth by MTT assay; type: functional, cell-based
HL-60 = test: Antiproliferative activity against human HL-60 cells assessed as inhibition of cell growth by MTT assay; type: functional, cell-based

| Compound | IC50 (MCF7) [µM] | IC50 (PANC-1) [µM] | IC50 (HCT-116 [1]) [µM] | IC50 (A2780) [µM] | IC50 [2] [µM] | Activity (HCT-116 [3]) [%] | Activity (HCT-116 [4]) [%] | Activity (HCT-116 [5]) [%] | Activity (HCT-116 [6]) [%] | Activity (HCT-116 [7]) [%] | Activity (HCT-116 [8]) [%] | Activity (HCT-116 [9]) [%] | Activity (HCT-116 [10]) [%] | IC50 (K562) [µM] | IC50 (RS4-11) [µM] | IC50 (HL-60) [µM] |
| --- | --- | --- | --- | --- | --- | --- | --- | --- | --- | --- | --- | --- | --- | --- | --- | --- |
| O=C(CCCCCNc1nc2ccccc2nc1-c1nc2ccccc2o1)NO | 3.69 | 1.92 | 2.44 | 4.07 | 16.4 |  |  |  |  |  |  |  |  |  |  |  |
| O=C(CCCCCCC(=O)Nc1ccccc1)NO [VORINOSTAT] |  |  |  |  |  | 58.4 | 34.9 | 6.59 | 0.146 | 41.49 | 58.11 | 30.87 | 11.02 |  |  |  |
| O=C(CCCCCCCNc1nc2ccccc2nc1-c1nc2ccccc2o1)NO | 1.52 | 2.87 | 3.04 | 3.27 | 17.4 |  |  |  |  |  |  |  |  | 0.89 | 0.89 | 0.89 |
| O=C(CCCNc1nc2ccccc2nc1-c1nc2ccccc2o1)NO | 4.98 | 3.68 | 4.59 | 6.29 | 24 |  |  |  |  |  |  |  |  |  |  |  |
| Nc1ccccc1NC(=O)CCCCCCCNc1nc2ccccc2nc1-c1nc2ccccc2o1 | 12.5 | 10.5 | 9.08 | 7.13 | 21.5 |  |  |  |  |  |  |  |  |  |  |  |
| Nc1ccccc1NC(=O)CCCNc1nc2ccccc2nc1-c1nc2ccccc2o1 | 33.5 | 21.6 | 17.2 | 23.9 | 27.2 |  |  |  |  |  |  |  |  |  |  |  |
| Nc1ccccc1NC(=O)CCCCCCNc1nc2ccccc2nc1-c1nc2ccccc2o1 | 7.33 | 11 | 6.51 | 17.9 | 16.7 |  |  |  |  |  |  |  |  |  |  |  |
| Nc1ccccc1NC(=O)CCCCCNc1nc2ccccc2nc1-c1nc2ccccc2o1 | 9.36 | 11.2 | 9.94 | 12.6 | 15.3 |  |  |  |  |  |  |  |  |  |  |  |
